Laboratory results taken from patent publication US20090203708A1, “NOVEL SUBSTITUTED-1-H-QUINAZOLINE-2,4-DIONE DERIVATIVES, PREPARATION METHOD THEREOF AND PHARMACEUTICAL COMPOSITION CONTAINING THE SAME” (Korea Research Institute of Chemical Technology, priority 2006, published 2009).

Assays:
[1] = biological target: human serotonin 5-HT6 receptor (Homo sapiens, UniProt P50406); assay: [3H]LSD binding assay for cloned 5-HT6 receptors
human serotonin 5-HT6 receptor, sequence (P50406 whole entry): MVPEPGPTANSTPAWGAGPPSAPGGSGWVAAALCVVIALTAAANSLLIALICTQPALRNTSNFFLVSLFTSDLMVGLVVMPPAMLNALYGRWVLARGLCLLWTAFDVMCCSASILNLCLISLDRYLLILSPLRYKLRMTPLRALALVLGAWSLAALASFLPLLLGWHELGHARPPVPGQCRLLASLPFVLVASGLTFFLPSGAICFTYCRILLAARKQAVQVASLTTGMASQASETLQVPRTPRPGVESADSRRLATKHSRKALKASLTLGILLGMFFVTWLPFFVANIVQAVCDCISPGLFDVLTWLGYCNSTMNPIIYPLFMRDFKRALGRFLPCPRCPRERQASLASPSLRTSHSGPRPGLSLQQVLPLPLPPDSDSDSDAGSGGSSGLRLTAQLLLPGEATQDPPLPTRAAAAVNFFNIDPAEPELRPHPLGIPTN

SMILES	IC50 [1] [nM]	melting point [°C]
CN1CCN(c2cc(Cl)cc3c2c(=O)n(Cc2ccccc2N)c(=O)n3Cc2ccccc2)CC1 [Example 34, 3-(2-amino-benzyl)-1-benzyl-7-chloro-5-(4-methyl-piperazin-1-yl)-1H-quinazoline-2,4-dione]	2.5	–
CC(C)CCn1c(=O)c2c(N3CCN(C)CC3)cc(Cl)cc2n(Cc2ccccc2)c1=O [Example 5, 1-benzyl-7-chloro-3-(3-methyl-butyl)-5-(4-methyl-piperazin-1-yl)-1H-quinazoline-2,4-dione]	3.6	62 to 68
CCCn1c(=O)n(Cc2ccccc2)c(=O)c2c(N3CCN(C)CC3)cc(Cl)cc21 [Example 52, 3-benzyl-7-chloro-5-(4-methyl-piperazin-1-yl)-1-propyl-1H-quinazoline-2,4-dione]	169	–
CN1CCN(c2cc(Cl)cc3c2c(=O)n(Cc2ccc([N+](=O)[O-])cc2)c(=O)n3Cc2ccccc2)CC1 [Example 33, 1-benzyl-7-chloro-5-(4-methyl-piperazin-1-yl)-3-(4-nitro-benzyl)-1H-quinazoline-2,4-dione]	15.4	109 to 113
Cc1ccc(Cn2c(=O)c3c(N4CCN(C)CC4)cc(Cl)cc3n(Cc3ccccc3)c2=O)cc1C [Example 39, 1-benzyl-7-chloro-3-(3,4-dimethyl-benzyl)-5-(4-methyl-piperazin-1-yl)-1H-quinazoline-2,4-dione]	5.1	96 to 99
O=c1c2c(N3CCNCC3)cc(Cl)cc2n(Cc2ccccc2)c(=O)n1Cc1ccccc1[N+](=O)[O-] [Example 66, 1-benzyl-7-chloro-3-(2-nitro-benzyl)-5-piperazin-1-yl-1H-quinazoline-2,4-dione]	5.7	129 to 134
CN1CCN(c2cc(Cl)cc3c2c(=O)n(Cc2cccc(O)c2)c(=O)n3Cc2ccccc2)CC1 [Example 29, 1-benzyl-7-chloro-3-(3-hydroxy-benzyl)-5-(4-methyl-piperazin-1-yl)-1H-quinazoline-2,4-dione]	15	234 to 236
CC(C)Cc1cccc(CCCn2c(=O)c3c(N4CCN(C)CC4)cc(Cl)cc3n(Cc3ccccc3)c2=O)c1 [Example 45, 1-benzyl-7-chloro-3-[3-(3-isobutyl-phenyl)-propyl]-5-(4-methyl-piperazin-1-yl)-1H-quinazoline-2,4-dione]	10.5	56 to 62
CN1CCN(c2cc(Cl)cc3c2c(=O)n(Cc2ccncc2)c(=O)n3Cc2ccccc2)CC1 [Example 48, 1-benzyl-7-chloro-5-(4-methyl-piperazin-1-yl)-3-pyridin-4-ylmethyl-1H-quinazoline-2,4-dione]	33.3	94 to 100
CN1CCN(c2cc(Cl)cc3c2c(=O)n(-c2ccccc2)c(=O)n3Cc2ccccc2)CC1 [Example 8, 1-benzyl-7-chloro-5-(4-methyl-piperazin-1-yl)-3-phenyl-1H-quinazoline-2,4-dione]	167	111 to 119
O=c1c2c(N3CCNCC3)cc(Cl)cc2n(Cc2ccccc2)c(=O)n1Cc1ccccc1 [Example 57, 1,3-dibenzyl-7-chloro-5-piperazin-1-yl-1H-quinazoline-2,4-dione]	3.4	115 to 123
CCn1c(=O)n(Cc2ccccc2)c(=O)c2c(N3CCN(C)CC3)cc(Cl)cc21 [Example 51, 3-benzyl-7-chloro-1-ethyl-5-(4-methyl-piperazin-1-yl)-1H-quinazoline-2,4-dione]	729	68 to 75
CN1CCN(c2cc(Cl)cc3c2c(=O)n(Cc2ccc(C#N)cc2)c(=O)n3Cc2ccccc2)CC1 [Example 37, 4-[1-benzyl-7-chloro-5-(4-methyl-piperazin-1-yl)-2,4-dioxo-1,4-dihydro-2H-quinazoline-3-ylmethyl]-benzonitrile]	27.1	99 to 105
CN1CCN(c2cc(Cl)cc3c2c(=O)n(Cc2ccc(N)cc2)c(=O)n3Cc2ccccc2)CC1 [Example 36, 3-(4-amino-benzyl)-1-benzyl-7-chloro-5-(4-methyl-piperazin-1-yl)-1H-quinazoline-2,4-dione]	22.1	93 to 96
CN1CCN(c2cc(Cl)cc3c2c(=O)n(Cc2ccccc2)c(=O)n3C)CC1 [Example 50, 3-benzyl-7-chloro-1-methyl-5-(4-methyl-piperazin-1-yl)-1H-quinazoline-2,4-dione]	> 1000	132 to 136
CN1CCN(c2cc(Cl)cc3c2c(=O)n(Cc2cccc4ccccc24)c(=O)n3Cc2ccccc2)CC1 [Example 46, 1-benzyl-7-chloro-5-(4-methyl-piperazin-1-yl)-3-naphthalen-1-ylmethyl-1H-quinazoline-2,4-dione]	3.2	75 to 89

Next, values leading:

IC50 [1] [nM]	melting point [°C]	SMILES
2.5	130 to 132	CN1CCN(c2cc(Cl)cc3c2c(=O)n(Cc2ccccc2O)c(=O)n3Cc2ccccc2)CC1 [Example 28, 1-benzyl-7-chloro-3-(2-hydroxy-benzyl)-5-(4-methyl-piperazin-1-yl)-1H-quinazoline-2,4-dione]
4.7	–	CN1CCN(c2cc(Cl)cc3c2c(=O)n(Cc2ccc(I)cc2)c(=O)n3Cc2ccccc2)CC1 [Example 21, 1-benzyl-7-chloro-3-(4-iodo-benzyl)-5-(4-methyl-piperazin-1-yl)-1H-quinazoline-2,4-dione]
3.6	–	Nc1ccccc1Cn1c(=O)c2c(N3CCNCC3)cc(Cl)cc2n(Cc2ccccc2)c1=O [Example 67, 3-(2-amino-benzyl)-1-benzyl-7-chloro-5-piperazin-1-yl-1H-quinazoline-2,4-dione]
6.4	124 to 130	COc1cccc(Cn2c(=O)c3c(N4CCNCC4)cc(Cl)cc3n(Cc3ccccc3)c2=O)c1 [Example 64, 1-benzyl-7-chloro-3-(3-methyoxy-benzyl)-5-piperazin-1-yl-1H-quinazoline-2,4-dione]
2.7	90 to 94	COC(=O)c1ccc(Cn2c(=O)c3c(N4CCN(C)CC4)cc(Cl)cc3n(Cc3ccccc3)c2=O)cc1 [Example 38, 4-[1-benzyl-7-chloro-5-(4-methyl-piperazin-1-yl)-2,4-dioxo-1,4-dihydro-2H-quinazoline-3-ylmethyl]-benzoic acid methyl ester]
2.3	122 to 125	COc1ccccc1Cn1c(=O)c2c(N3CCNCC3)cc(Cl)cc2n(Cc2ccccc2)c1=O [Example 63, 1-benzyl-7-chloro-3-(2-methoxy-benzyl)-5-piperazin-1-yl-1H-quinazoline-2,4-dione]
40.2	260 to 265	CN1CCN(c2cc(Cl)cc3c2c(=O)n(Cc2cccc(N)c2)c(=O)n3Cc2ccccc2)CC1 [Example 35, 3-(3-amino-benzyl)-1-benzyl-7-chloro-5-(4-methyl-piperazin-1-yl)-1H-quinazoline-2,4-dione]
2.8	–	CCCCn1c(=O)c2c(N3CCN(C)CC3)cc(Cl)cc2n(Cc2ccccc2)c1=O [Example 4, 1-benzyl-3-butyl-7-chloro-5-(4-methyl-piperazin-1-yl)-1H-quinazoline-2,4-dione]
30.2	–	CCCCn1c(=O)n(Cc2ccccc2)c(=O)c2c(N3CCN(C)CC3)cc(Cl)cc21 [Example 53, 3-benzyl-1-butyl-7-chloro-5-(4-methyl-piperazin-1-yl)-1H-quinazoline-2,4-dione]
